The record followed here is US20130131008A1, “LIPOPHILIC MONOPHOSPHORYLATED DERIVATIVES AND NANOPARTICLES” (BOARD OF REGENTS, THE UNIVERSITY OF TEXAS SYSTEM, priority 2011, published 2013).

As a reminder, the IC50 is the concentration that gives 50% inhibition.

In data set [1] the test system is TC-1-GR cells. The data set is described as follows: cells. In kind it is cell-based. As to conditions: for IC50: MTT, 48 h incubation, RRM1 over-expressing. An excerpt:
(§1) Human leukemia cell line CCRF-CEM (CCL-119), human pancreatic cancer cell lines PANC-1 (CRL-1469), MIA PaCa-2 (CRL-1420), and BxPC-3 (CRL-1687), human breast adenocarcinoma cell line MCF-7 (HTB-22), and mouse lung cancer cell line TC-1 (CRL-2785) were from the American Type Culture Collection (Rockville, Md.). CCRF-CEM-AraC-8C cells (hENT1 deficient) and CCRF-CEM/dCK^−/− cells (dCK deficient) were kindly provided by Dr. Buddy Ullmann (Oregon Health & Science University, Portland, Oreg.) and Dr. Margaret Black (Washington State University, Pullman, Wash.), respectively. L1210 wt and L1210 10K were kindly supplied by Dr. Lars Petter Jordheim (Université Claude Bernard Lyon I, Lyon, France). TC-1-GR cells were previously developed in our lab. CCRF-CEM, CCRF-CEM-AraC-8C, CCRF-CEM/dCK^−/−, L1210 wt, L1210 10K, TC-1, and TC-1-GR cells were cultured in RPMI 1640 medium. MCF-7 and PANC-1 cells were cultured in Dulbecco's modified Eagle medium (DMEM), MIA PaCa-2 cells were cultured in DMEM medium with 2.5% horse serum. All media were supplemented with 10% fetal bovine serum (FBS), 100 U/mL of penicillin, and 100 μg/mL of streptomycin (all from Invitrogen, Carlsbad, Calif.).
(§2) Cells (5,000/well) were seeded in 96-well plates. After overnight incubation, they were treated with various concentrations of gemcitabine HCl, gemcitabine derivatives, or gemcitabine derivatives in nanoparticles at 37° C., 5% CO2. TC-1 and TC-1-GR cells were incubated for 48 h. CCRF-CEM, CCRF-CEM-AraC-8C, CCRF-CEM/dCK^−/−, L1210 wt, L1210 10K, and MCF-7 cells were incubated for 72 h, and MIA PaCa-2 and PANC-1 for 96 h. Gemcitabine HCl was dissolved in phosphate-buffered saline (PBS), and gemcitabine derivatives were dissolved in dimethyl sulfoxide (DMSO). […] The number of viable cells after the incubation was determined using an MTT assay. Briefly, 3-(4,5-dimethylthiazol-2-yl)-2,5-diphenyltetrazolium bromide (20 μl, 5 mg/mL) was added in each well and incubated for 3 h. Formazan crystals were solubilized with acidified isopropanol (150 μl) (for CCRF-CEM, CCRF-CEM-AraC-8C, CCRF-CEM/dCK^−/−, L1210 wt, and L1210 10K cells) or DMSO (150 μl) (for TC-1, TC-1-GR, MCF-7, PANC-1, and MIA PaCa-2). Absorbance was measured using a BioTek Synergy™ HT Multi-Mode Microplate Reader (BioTek Instruments, Winooski, Vt.) at 570 nm and 630 nm. The fraction of affected (dead) cells (Fa) and the fraction of unaffected (live) cells (Fu) at every dose were calculated, and the Log(Fa/Fu) values were plotted against the Log(concentration of gemcitabine). IC50 was the dose at Log(Fa/Fu)=0, See e.g., Chou, T. C. & Talalay, P., 1984, Adv. Enzyme Regul. 22:27-55. The experiment was repeated at least three times.

Data set [2] relates to CCRF-CEM cells. The data set is described as follows: In vitro cytotoxicity assay (MTT), 72 h. In kind it is cell-based, human. As to conditions: 72 h incubation.
Text: as §1, §2

In data set [3] the test system is PANC-1 cells. The data set is described as follows: In vitro cytotoxicity assay (MTT), 96 h, RRM2 over-expressing cells. In kind it is cell-based, human. As to conditions: for IC50: MTT, 96 h incubation, RRM2 over-expressing.
Text: as §1, §2

Data set [4] concerns CCRF-CEM-AraC-8C cells. As to the kind of experiment: In vitro cytotoxicity assay (MTT), 72 h, hENT1 deficient cells. The format is cell-based, human. As to conditions: for IC50: MTT, 72 h incubation, hENT1 deficient.
Text: as §1, §2

Data set [5] relates to TC-1 cells. The data set is described as follows: In vitro cytotoxicity assay (MTT), 48 h. The format is cell-based. As to conditions: 48 h incubation.
Text: as §1, §2

For data set [6], the system named is MIA PaCa-2 cells. As to the kind of experiment: In vitro cytotoxicity assay (MTT), 96 h. The format is cell-based, human. To be noted: 96 h incubation.
Text: as §1, §2

Data set [7] in a line: Solubility observations (DMSO, water). To be noted: for the in vitro cytotoxicity assay. The format is physicochemical.
For data set [8], the system named is CCRF-CEM/dCK−/− cells. The data set is described as follows: In vitro cytotoxicity assay (MTT), 72 h, dCK deficient cells. In kind it is cell-based, human. As to conditions: MTT, 72 h incubation; dCK deficient.
Text: as §1
Cells (5,000/well) were seeded in 96-well plates. After overnight incubation, they were treated with various concentrations of gemcitabine HCl, gemcitabine derivatives, or gemcitabine derivatives in nanoparticles at 37° C., 5% CO2. TC-1 and TC-1-GR cells were incubated for 48 h. CCRF-CEM, CCRF-CEM-AraC-8C, CCRF-CEM/dCK^−/−, L1210 wt, L1210 10K, and MCF-7 cells were incubated for 72 h, and MIA PaCa-2 and PANC-1 for 96 h. […] The number of viable cells after the incubation was determined using an MTT assay. […] Absorbance was measured using a BioTek Synergy™ HT Multi-Mode Microplate Reader (BioTek Instruments, Winooski, Vt.) at 570 nm and 630 nm. The fraction of affected (dead) cells (Fa) and the fraction of unaffected (live) cells (Fu) at every dose were calculated, and the Log(Fa/Fu) values were plotted against the Log(concentration of gemcitabine). […]

Data set [9] has as its system B16-F10 melanoma tumor. The data set is described as follows: Antitumor activity of GemC18/PEG-C18 micelles in mice with B16-F10 tumors (Example 20). As to conditions: C57BL/6 mice, tail vein injection, 0.283 mg GemHCl or molar equivalent GemC18; 2 doses (micelles 3 doses), 3 days apart. In kind it is in vivo, mouse. As to the method:
The in vivo antitumor activity of GemC18/PEG-C18 micelles was evaluated in C57BL/6 mice with subcutaneously inoculated B16-F10 cells (5.0×10^5/mouse) in the right flank. Treatments were given 6 days after tumor cell inoculation by tail vein injection with normal saline, Gemcitabine HCl (GemHCl) solution, GemC18 solution, blank PEG-C18 micelles, or GemC18/PEG-C18 micelles. The dose was 0.283 mg of GemHCl or molar equivalent amount of GemC18. All groups received a second dose three days after the first dose, while the GemC18/PEG-C18 micelle group also received a third dose 3 days after the second dose. Tumor sizes were measured with calipers in two perpendicular diameters every day and reported as tumor volume (V=½ [a×b^2], a=longer diameter, b=shorter diameter).

Where [10] appears, read: IC50 of gemcitabine HCl divided by that of the derivatives or derivatives in nanoparticles.

On to `CCCCCCCCCCCCCCCCCC(=O)OCC(Cl)COP(=O)(O)OC[C@H]1O[C@@H](n2ccc(N)nc2=O)C(F)(F)[C@@H]1O` (mixture of isomers) [Compound 12, 2′-2′-difluoro-2′-deoxycytidine 5′(3-stearoyloxy-2-rac-chloropropyl)phosphate], for which the half-inhibitory concentration (IC50) is 76.3 ± 10.5 µM in [1]; 0.0498 ± 0.0059 µM in data set [2]; 58.7 ± 14.2 µM in data set [3]; 1.77 ± 0.533 µM in data set [4]; 0.43 ± 0.0524 µM in data set [5]; 0.245 ± 0.038 µM in [6].
Consider `CCCCCCCCCCCCCCCCCC(=O)Nc1ccn([C@@H]2O[C@H](COP(=O)(O)O)C(O)C2(F)F)c(=O)n1` (stereo in doubt) [Compound 13, 4-N-Octadecanoyl-2′-2′-difluoro-2′-deoxycytidine 5′-sodiumphosphate], for which, in data set [7], the “solubility in DMSO” value is given as “not sufficiently solubilized in DMSO”.
As to `CCCCCCCCCCCCCCCCCCOP(=O)(O)OC[C@H]1O[C@@H](n2ccc(NC(C)=O)nc2=O)C(F)(F)[C@@H]1O` [Compound 9, 4-N-acetyl-2′-2′-difluoro-2′-deoxycytidine-5′-octadecylphosphate], the IC50 in data set [1] was 9.3 ± 2.5 µM; in data set [2], 0.0581 ± 0.0185 µM; in [3], 38.5 ± 5.7 µM; in data set [4] it was 0.575 ± 0.0971 µM; in data set [5] it was 0.211 ± 0.085 µM; in [6] it was 0.205 ± 0.0395 µM.
As to `CCCCCCCCCCCCCCCCCC(=O)Nc1ccn([C@@H]2OC(CO)C(O)C2(F)F)c(=O)n1` (stereo partly shown) [GemC18, 4-N-stearoyl gemcitabine], in data set [1] (setting [10]), the “Ratio of IC50 values in TC-1-GR cells” value amounted to 5. The IC50 in [1] was found to be 7.7 ± 2.4 µM; in data set [2], 0.0194 ± 0.0133 µM; in data set [8], 47.3 ± 8.7 µM; in [3], 6 ± 1.1 µM; in data set [4], 0.369 ± 0.235 µM; in [5] it was 0.132 ± 0.0172 µM. Besides, the IC50 in data set [6] is 0.133 ± 0.0604 µM. In addition, the “Ratio of IC50 in PANC-1 to that in MIA PaCa-2” value in data set [3] came out at 45. Moreover, the “Ratio of IC50 in CCRF-CEM-AraC-8C to that in CCRF-CEM” value in [4] is 19. Also, the “Ratio of IC50 values in CEM-AraC-8C cells” value in data set [4] (setting [10]) is recorded as 2.7. In data set [9], the “B16-F10 tumor growth (tumor volume)” value was “not significant different from that in mice that received normal saline”.
